Test results taken from ChEMBL document CHEMBL1201862, “PubChem BioAssay data set” (2004).
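Results reflect a 48-hour exposure of cells in 96-well plates to compound at five concentrations. GI50: concentration for 50% inhibition of growth.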 The source made the active and inactive calls. Cut-off read from the data, not from the text of the source: active = GI50 up to about 1.1 µM and inactive = higher.

Experiments:
Test in all cases: growth of human tumour cells (NCI), 48 h
[1] = tested on: A549
[2] = tested on: OVCAR-4
[3] = tested on: NCI-H522
[4] = tested on: OVCAR-8
[5] = tested on: UACC-62
[6] = tested on: CCRF-CEM
[7] = tested on: HOP-62
[8] = tested on: SF-268
[9] = tested on: SK-OV-3
[10] = tested on: IGROV-1
[11] = tested on: A498
[12] = tested on: UACC-257
[13] = tested on: SNB-19
[14] = tested on: MDA-MB-231
[15] = tested on: MDA-N
[16] = tested on: Hs-578T
[17] = tested on: DU-145
[18] = tested on: MDA-MB-435
[19] = tested on: NCI/ADR-RES

Row | SMILES | GI50 [1] | GI50 [2] | GI50 [3] | GI50 [4] | GI50 [5] | GI50 [6] | GI50 [7] | GI50 [8] | GI50 [9] | GI50 [10] | GI50 [11] | GI50 [12] | GI50 [13] | GI50 [14] | GI50 [15] | GI50 [16] | GI50 [17] | GI50 [18] | GI50 [19]
1 | CCOC(=O)C(=C=Cc1cccs1)C(=O)c1ccccc1 | 18.9 µM (inactive) | 17 µM (inactive) | 15.1 µM (inactive) | 15.8 µM (inactive) | 15.5 µM (inactive) | 29.1 µM (inactive) | 18.7 µM (inactive) | 15.9 µM (inactive) | 20.3 µM (inactive) | 17.3 µM (inactive) | 19.9 µM (inactive) | 12.9 µM (inactive) |  |  |  |  |  |  | 
2 | COc1ccc(Nc2nc3c(N)cc(C(F)(F)F)cc3nc2-c2ccccc2)cc1 | > 100 µM (inactive) | 37.2 µM (inactive) | 44.3 µM (inactive) | > 100 µM (inactive) | > 100 µM (inactive) | > 100 µM (inactive) | 83.2 µM (inactive) | 75.7 µM (inactive) | 83 µM (inactive) | 52 µM (inactive) | > 100 µM (inactive) | > 100 µM (inactive) | 71.6 µM (inactive) |  |  |  |  |  | 
3 | C=CCc1cc(-c2cc(CC=C)c(O)c(CNC)c2)cc(CNC)c1O | 17.8 µM (inactive) | 16.5 µM (inactive) | 14.8 µM (inactive) | 17.6 µM (inactive) | 18.1 µM (inactive) | 7.4 µM (inactive) | 18.8 µM (inactive) | 16.3 µM (inactive) |  | 18 µM (inactive) | 20.3 µM (inactive) | 16 µM (inactive) | 13.3 µM (inactive) |  |  |  |  |  | 
4 | COc1ccc(/C=N/N=C(\N)NO)cc1O | 27.6 µM (inactive) | 45.4 µM (inactive) | > 10 µM (inactive) |  | 31.1 µM (inactive) | > 100 µM (inactive) |  | 32 µM (inactive) | 80.2 µM (inactive) | 84.1 µM (inactive) |  |  | > 100 µM (inactive) |  |  |  |  |  | 
5 | N#CC1CC2(C(=O)C1=O)c1ccccc1-c1ccccc12 (stereo not given) | > 100 µM (inactive) | > 100 µM (inactive) | > 100 µM (inactive) | > 100 µM (inactive) | > 100 µM (inactive) | 67.5 µM (inactive) | > 100 µM (inactive) | > 100 µM (inactive) | > 100 µM (inactive) | > 100 µM (inactive) | > 100 µM (inactive) | > 100 µM (inactive) | > 100 µM (inactive) |  |  |  |  |  | 
6 | N#CC(C#N)=C1SCC(=O)CS1 | > 100 µM (inactive) | > 100 µM (inactive) | > 100 µM (inactive) | > 100 µM (inactive) | > 100 µM (inactive) | > 100 µM (inactive) | > 100 µM (inactive) | > 100 µM (inactive) | > 100 µM (inactive) | > 100 µM (inactive) | > 100 µM (inactive) | > 100 µM (inactive) | > 100 µM (inactive) |  |  |  |  |  | 
7 | N#Cc1nc(-c2ccccc2O)oc1N | 63.5 µM (inactive) |  |  | 89.1 µM (inactive) | 95.9 µM (inactive) | 16.4 µM (inactive) | > 100 µM (inactive) | 64.3 µM (inactive) | > 100 µM (inactive) | 40 µM (inactive) | 80.9 µM (inactive) | > 100 µM (inactive) | > 100 µM (inactive) | > 100 µM (inactive) | > 100 µM (inactive) | 40.9 µM (inactive) | > 100 µM (inactive) | 99.8 µM (inactive) | 
8 | C=Cc1c(-c2ccccc2)cnc2[nH]c3ccccc3c12 | > 50 µM (inactive) | > 50 µM (inactive) | > 50 µM (inactive) | > 50 µM (inactive) | > 50 µM (inactive) | > 50 µM (inactive) | > 50 µM (inactive) | > 50 µM (inactive) | > 50 µM (inactive) | > 50 µM (inactive) | > 50 µM (inactive) | > 50 µM (inactive) | > 50 µM (inactive) |  |  |  |  |  | 
9 | CC(=O)Oc1ccccc1C(=O)C1c2cccc(O)c2C(=O)c2c(O)cccc21 | 0.776 µM (active) | 0.995 µM (active) | 0.479 µM (active) | 1.23 µM (inactive) | 0.794 µM (active) | 0.306 µM (active) | 1.44 µM (inactive) | 0.927 µM (active) | 0.543 µM (active) | 0.986 µM (active) | 1.8 µM (inactive) | 1.62 µM (inactive) | 0.416 µM (active) |  |  |  |  |  | 
10 | O=C1CSC(/C(=C/c2ccccc2)c2nc3ccccc3[nH]2)=N1 | 72.6 µM (inactive) | > 100 µM (inactive) | 41.9 µM (inactive) | 47.2 µM (inactive) | 49.8 µM (inactive) | 34 µM (inactive) | 41.2 µM (inactive) | > 100 µM (inactive) | 23.3 µM (inactive) | 44.9 µM (inactive) | > 100 µM (inactive) | > 100 µM (inactive) | 25.9 µM (inactive) |  |  |  |  |  | 
11 | CCCC(O)c1cn(-c2cccc(S(=O)(=O)O)c2)nn1 (stereo not given) | > 100 µM (inactive) | > 100 µM (inactive) | > 100 µM (inactive) | > 100 µM (inactive) | > 100 µM (inactive) | > 100 µM (inactive) | > 100 µM (inactive) | > 100 µM (inactive) | > 100 µM (inactive) | > 100 µM (inactive) | > 100 µM (inactive) | > 100 µM (inactive) | > 100 µM (inactive) |  |  |  |  |  | 
12 | C[n+]1cccc2ccc(OC(=O)c3ccccc3)cc21 | > 100 µM (inactive) | > 100 µM (inactive) | > 100 µM (inactive) | > 100 µM (inactive) | > 100 µM (inactive) | > 10 µM (inactive) | > 100 µM (inactive) | > 100 µM (inactive) | > 100 µM (inactive) | > 100 µM (inactive) | > 100 µM (inactive) | > 100 µM (inactive) | > 100 µM (inactive) |  | > 100 µM (inactive) | > 100 µM (inactive) | > 100 µM (inactive) | > 100 µM (inactive) | > 100 µM (inactive)
13 | [N-]=[N+]=NC(c1cn(C2CC(O)C(CO)O2)c(=O)[nH]c1=O)C(Br)Br (stereo not given) | > 100 µM (inactive) |  | > 100 µM (inactive) | > 100 µM (inactive) | > 100 µM (inactive) | > 100 µM (inactive) | > 100 µM (inactive) |  | > 100 µM (inactive) | > 100 µM (inactive) |  |  | > 100 µM (inactive) |  |  |  |  |  | 
14 | CC(C)(C)NNC(=O)/C(=C/c1ccc([N+](=O)[O-])cc1)NC(=O)c1ccccc1 | > 100 µM (inactive) | 75 µM (inactive) | 24.2 µM (inactive) | > 100 µM (inactive) | > 100 µM (inactive) | 31.3 µM (inactive) | > 100 µM (inactive) | 55.8 µM (inactive) | > 100 µM (inactive) | > 100 µM (inactive) | > 100 µM (inactive) | > 100 µM (inactive) | > 100 µM (inactive) |  |  |  |  |  | 
15 | C/C(=N/Nc1ccc([N+](=O)[O-])cc1[N+](=O)[O-])C(CC(C(=O)Nc1ccccc1C)/C(C)=N\Nc1ccc([N+](=O)[O-])cc1[N+](=O)[O-])C(=O)Nc1ccccc1C (stereo not given) | 19.7 µM (inactive) | 5.74 µM (inactive) | 0.424 µM (active) | 6 µM (inactive) | 19.6 µM (inactive) | > 100 µM (inactive) | 11.9 µM (inactive) | 7.67 µM (inactive) | 30.1 µM (inactive) | 15.8 µM (inactive) | 14.9 µM (inactive) | 14.4 µM (inactive) | 14 µM (inactive) |  |  |  |  |  | 
16 | N#CCC(=O)N1CCCCCCC1 | > 100 µM (inactive) | > 100 µM (inactive) |  |  | > 100 µM (inactive) | > 100 µM (inactive) | > 100 µM (inactive) | > 100 µM (inactive) | > 100 µM (inactive) | > 100 µM (inactive) | > 100 µM (inactive) | > 100 µM (inactive) | > 100 µM (inactive) |  |  |  |  |  | 
17 | O=C(COC(=O)c1cccc2c(=O)c3ccccc3[nH]c12)Nc1ccc(Cl)cc1 | > 100 µM (inactive) | 95.9 µM (inactive) | 23.9 µM (inactive) | > 100 µM (inactive) | 54.1 µM (inactive) | 54 µM (inactive) | 22.1 µM (inactive) | > 100 µM (inactive) | 82.8 µM (inactive) | 70.6 µM (inactive) | 7.96 µM (inactive) | > 100 µM (inactive) | 35 µM (inactive) |  |  |  |  |  | 
18 | O=C(NC12CC3CC(CC(F)(C3)C1)C2)c1ccccc1 | > 100 µM (inactive) |  | > 100 µM (inactive) | > 100 µM (inactive) | > 100 µM (inactive) | > 100 µM (inactive) | > 100 µM (inactive) |  | > 100 µM (inactive) | > 100 µM (inactive) | > 100 µM (inactive) | > 100 µM (inactive) | > 100 µM (inactive) |  |  |  |  |  | 
19 | COC1(C)C(=O)N2C1N(C(=O)OC(C)(C)C)CC2(C)C (stereo not given) | > 100 µM (inactive) | > 100 µM (inactive) | > 100 µM (inactive) | > 100 µM (inactive) | > 100 µM (inactive) | > 100 µM (inactive) | > 100 µM (inactive) | > 100 µM (inactive) | > 100 µM (inactive) | > 100 µM (inactive) | > 100 µM (inactive) | > 100 µM (inactive) | > 100 µM (inactive) |  |  |  |  |  | 
20 | COc1ccc(C(=O)C/C(=N/NC(N)=S)C(=O)Nc2ccccc2)cc1 | > 100 µM (inactive) | 31.9 µM (inactive) |  | > 100 µM (inactive) | > 100 µM (inactive) | > 100 µM (inactive) |  | > 100 µM (inactive) | > 100 µM (inactive) | > 100 µM (inactive) | > 100 µM (inactive) | > 100 µM (inactive) | > 100 µM (inactive) |  |  |  |  |  | 
21 | COC(=O)C1=C(C)C(=O)[C@H]2C(C(=O)OC)CCCC[C@@H]12 (stereo not given in full) | > 100 µM (inactive) | > 100 µM (inactive) | 29.4 µM (inactive) | > 100 µM (inactive) | > 100 µM (inactive) | 40.5 µM (inactive) | > 100 µM (inactive) | > 100 µM (inactive) | > 100 µM (inactive) | > 100 µM (inactive) | > 100 µM (inactive) | 45.6 µM (inactive) | > 100 µM (inactive) |  |  |  |  |  | 
